Laboratory results taken from PMC5719405, “Sex-related pharmacokinetic differences and mechanisms of metapristone (RU486 metabolite)” (Scientific Reports, 2017).
Read-outs that look alike come from different tables or passages of the source.

Columns and labels:
[1] = cited from earlier work
[2] = Metapristone metabolism in rat liver microsomes in the presence of specific CYP450 inhibitors; settings: inhibitor 10 µM, metapristone 9 µM, male or female rat liver microsomes, 120 min
[3] = parameters: method as in PMID 22210121; settings: cited from earlier work

SMILES | effect of CYP inhibitor on metabolism rate of metapristone versus controls [2] | also measured
CCN(CC)CCCC(C)Nc1ccnc2cc(Cl)ccc12 (centres unmarked) [Chloroquine] | – | V d ([1]; literature example, no reference given): 15,000 L
CCCn1c(=O)c2[nH]c(C34CC5CC(CC3C5)C4)nc2n(CCC)c1=O [Rolofylline] | – | V d [1]: 239 L
CC[C@H]1OC(=O)[C@@](C)(F)C(=O)[C@H](C)[C@@H](O[C@@H]2O[C@H](C)C[C@H](N(C)C)[C@H]2O)[C@](C)(OC)C[C@@H](C)C(=O)[C@H](C)[C@H]2N(CCCCn3cc(-c4cccc(N)c4)nn3)C(=O)O[C@]12C [Solithromycin] | – | V d [1]: > 500 L
CC(=O)N1CCN(c2ccc(OCC3COC(Cn4ccnc4)(c4ccc(Cl)cc4Cl)O3)cc2)CC1 (centres unmarked) [ketoconazole] | significantly prevented metapristone from degradation | –
CC#C[C@]1(O)CC[C@H]2[C@@H]3CCC4=CC(=O)CCC4=C3[C@@H](c3ccc(N(C)C)cc3)C[C@@]21C [mifepristone] | – | plasma protein binding rate [3]: 90%
C=C[C@H]1C[N@@]2CC[C@H]1C[C@@H]2[C@@H](O)c1ccnc2ccc(OC)cc12 [quinidine] | No significant differences | –
Nc1ccc(S(=O)(=O)Nc2ccnn2-c2ccccc2)cc1 [sulfaphenazole] | No significant differences | –
O=c1cc(-c2ccccc2)oc2c1ccc1ccccc12 [α-naphthoflavone] | significantly prevented metapristone from degradation | –
